Tests used:
[1] = biological target: T1, ERK2 (Homo sapiens, UniProt P28482); assay: ERK2 enzyme activity test (ADP-Glo Kinase Assay); assay type: biochemical; conditions: chemiluminescence
T1 construct: purchased R&D 1230-KS-010
Protocol: (§1) The purpose of this experiment is to detect the inhibitory ability of the compounds on the ERK2 enzyme activity and evaluate the activity of the compounds in vitro according to IC50. The ADP-Glo™ Kinase Assay Kit was used in this experiment. Under the action of enzyme, the substrate was phosphorylated and ADP was produced at the same time. The ADP-Glo Reagent was added to remove unreacted ATP in the reaction system. The kinase detection reagent was used to detect the ADP produced by the reaction. In the presence of the compound, the inhibition rate of the compound was calculated by measuring the signal value.
Enzyme and substrate preparation: ERK2 (1230-KS-010, R&D) and substrate (Custom peptides, Gill Biochemical) were prepared to be 0.75 ng/μl and 1500 μM in the buffer (40 mM Tris, 20 mM MgCl2, 0.1 mg/mL BSA, 50 μM DTT). The enzyme solution and substrate solution were then prepared into a mixed solution at a volume ratio of 2:1 for later use. ATP was diluted to 500 μM with the buffer. The compounds were dissolved in DMSO (dimethyl sulfoxide, Shanghai Titan Scientific Co., Ltd.) to prepare a stock solution with an initial concentration of 20 mM, and then Bravo was used to prepare solutions of the compounds. Finally, a 3 μL of a mixed solution of enzyme and substrate, and 1 μL of different concentrations of the compound (the initial concentration is 50 μM, 4-fold dilution) were added to each well of the 384-well plate, and the plate was incubated at 30° C. for 10 minutes, and finally 1 μL of 500 μM ATP solution was added to each well, and the plate was incubated at 30° C. for 2 hours. Then 5 μL of ADP-Glo was added, and the plate was incubated at 30° C. for 40 minutes. Then 10 μL of Kinase detection buffer was added, and the plate was incubated at 30° C. for 40 minutes. The 384-well plate was taken out and placed in a microplate reader (BMG labtech, PHERAstar FS), and the chemiluminescence was measured by the microplate reader.
(§2) The data were processed and analyzed with Microsoft Excel, Graphpad Prism 5.

[2] = Pharmacokinetics assay in mice; assay type: in vivo; conditions: mouse, po, C57 mice (female), intragastric, 2 mg/kg, plasma; for Vd/F: read-out: Apparent distribution volume Vz/F; for AUC: read-out: Area under curve AUC; for CL/F: read-out: Clearance CLz/F; for half-life: read-out: Half Life T1/2 (converted); for Cmax: read-out: Plasma Concentration Cmax; for MRT: read-out: Residence Time MRT
Protocol: Mice were used as the test animal. The drug concentration in plasma at different time points was determined by LC/MS/MS method after administration of compound 3-P2, compound 4-P2, compound 9-P2, compound 10-P2, compound 12 and compound 15. The pharmacokinetic behavior of the compounds of the present disclosure in mice was studied, and the pharmacokinetic characteristics were evaluated.
54 of C57 mice (female) were equally divided into 6 groups, which were purchased from Shanghai Jiesijie Laboratory Animal Co., Ltd., with the animal production license number: SOCK (Shanghai) 2013-0006.
A certain amount of compound was weighted, followed by the addition of 5% volume of DMSO and 5% Tween 80 to dissolve it, then followed by the addition of 90% normal saline to prepare a colorless and clear solution of 0.1 mg/mL.
After an overnight fast, C57 mice were intragastrically administered the test compound at an administration dose of 2 mg/kg and an administration volume of 0.2 ml/10 g.
The mice were intragastrically administered the test compounds. 0.1mL of blood was taken before the administration and at 0.25, 0.5, 1.0, 2.0, 4.0, 6.0, 8.0, 11.0, 24.0 hours after the administration. The blood was placed in a heparinized test tube, and centrifuged at 3500 rpm for 10 minutes. The plasma was separated and stored at −20° C.
The content of the test compound in the plasma of mice after […] administration of the test compound at different concentrations was determined: 25 μl of mouse plasma at each time point after the administration was taken, followed by the addition of 50 μl of the internal standard camptothecin solution (100 ng/mL) and 200 μl of acetonitrile. The resulting solution was vortex-mixed for 5 minutes, and centrifuged for 10 minutes (4000 rpm). 4μl of the supernatant was taken from the plasma samples for LC/MS/MS analysis.

[3] = tested on: Colo205 cells; assay: In vitro proliferation inhibition test on Colo205 tumor cells (CellTiter-Glo); assay type: cell-based; conditions: Homo sapiens, COLO 205, 72 h; Colo205 cell proliferation, 3 days of culture, CTG
Protocol: The purpose of this experiment is to test the inhibitory activity of the compounds on the proliferation of Colo205 cells (CCL-222, ATCC) in vitro. The cells were treated with different concentrations of compounds in vitro. After 3 days of culture, the cell proliferation was detected using CTG (CellTiter-Glo® Luminescent Cell Viability Assay, Promega, catalog number: G7573) reagent. The in vitro activity of the compounds was evaluated according to the IC50 value.
In the following, taking the in vitro proliferation inhibition test method of Colo205 cells as an example, the method in the present disclosure for testing the in vitro proliferation inhibitory activity of the compounds of the present disclosure is described. This method is also applicable to, but not limited to, the in vitro proliferation inhibitory activity test on other tumor cells.
Colo205 cells were digested, centrifuged and then resuspended. The single cell suspension was mixed well, and the density of viable cells was adjusted to 5.0×10^4 cells/ml with cell culture medium (RPMI1640+2% FBS), and 95 μl/well was added to a 96-well cell culture plate. Only 100 μl medium was added to the peripheral wells of the 96-well plate. The culture plate was incubated in an incubator for 24 hours (37° C., 5% CO2).
The compound was dissolved in DMSO (dimethyl sulfoxide, Shanghai Titan Scientific Co., Ltd.) and prepared into a stock solution with an initial concentration of 20 mM. The initial concentration of the small molecule compound is 2 mM, and then 4-fold diluted into to 9 points, and the tenth point is DMSO. Another 96-well plate was taken, 90 μl of cell culture medium (RPMI1640+2% FBS) was added to each well, then 10 μl of different concentrations of the test sample was added to each well, the mixture was mixed well, and then 5 μl of different concentrations of the test sample was added to the cell culture plate, and each sample has two duplicate holes. The culture plate was incubated in the incubator for 3 days (37° C., 5% CO2). The 96-well cell culture plate was taken out, 50 μl CTG solution was added to each well, and the plate was incubated for 10 minutes at room temperature. In a microplate reader (BMG labtech, PHERAstar FS), chemiluminescence was measured with the microplate reader.
as §2

[4] = biological target: T2, ERK1 (Homo sapiens, UniProt P27361); assay: ERK1 enzyme activity test (ADP-Glo Kinase Assay); assay type: biochemical; conditions: chemiluminescence
T2 construct: purchased R&D 1879-KS-010
Protocol: as §1, with “ERK1” for “ERK2”
Enzyme and substrate preparation: ERK1 (1879-KS-010, R&D) and substrate (AS-61777, anaspec) were prepared to be 0.75 ng/μl and 100 μM respectively in the buffer. The enzyme solution and substrate solution were then prepared into a mixed solution at a volume ratio of 2:1 for later use. ATP was diluted to 300 μM with the buffer. The compounds were dissolved in DMSO (dimethyl sulfoxide, Shanghai Titan Scientific Co., Ltd.) to prepare a stock solution with an initial concentration of 20 mM, and then Bravo was used to prepare solutions of the compounds. Finally, a 3 μL of a mixed solution of enzyme and substrate, and 1 μL of different concentrations of the compound (the initial concentration is 50 μM, 4-fold dilution) were added to each well of the 384-well plate, and the plate was incubated at 30° C. for 10 minutes, and finally 1 μL of 300 μM ATP solution was added to each well, and the plate was incubated at 30° C. for 2 hours. Then 5 μL of ADP-Glo was added, and the plate was incubated at 30° C. for 40 minutes. Then 10 μL of Kinase detection buffer was added, and the plate was incubated at 30° C. for 40 minutes. The 384-well plate was taken out and placed in a microplate reader (BMG labtech, PHERAstar FS), and the chemiluminescence was measured by the microplate reader.
as §2

T2 sequence (P27361 whole entry): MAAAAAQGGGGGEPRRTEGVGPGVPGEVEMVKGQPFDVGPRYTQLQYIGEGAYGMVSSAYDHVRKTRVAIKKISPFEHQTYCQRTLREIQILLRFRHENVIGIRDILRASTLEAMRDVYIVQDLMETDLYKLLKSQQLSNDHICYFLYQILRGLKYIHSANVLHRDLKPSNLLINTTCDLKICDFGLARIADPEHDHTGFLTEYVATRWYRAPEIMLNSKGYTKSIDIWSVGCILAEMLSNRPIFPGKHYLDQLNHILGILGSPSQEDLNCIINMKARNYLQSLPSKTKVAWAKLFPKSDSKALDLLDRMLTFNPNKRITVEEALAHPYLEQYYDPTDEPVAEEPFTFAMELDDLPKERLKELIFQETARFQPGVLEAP
T1 sequence (P28482 whole entry): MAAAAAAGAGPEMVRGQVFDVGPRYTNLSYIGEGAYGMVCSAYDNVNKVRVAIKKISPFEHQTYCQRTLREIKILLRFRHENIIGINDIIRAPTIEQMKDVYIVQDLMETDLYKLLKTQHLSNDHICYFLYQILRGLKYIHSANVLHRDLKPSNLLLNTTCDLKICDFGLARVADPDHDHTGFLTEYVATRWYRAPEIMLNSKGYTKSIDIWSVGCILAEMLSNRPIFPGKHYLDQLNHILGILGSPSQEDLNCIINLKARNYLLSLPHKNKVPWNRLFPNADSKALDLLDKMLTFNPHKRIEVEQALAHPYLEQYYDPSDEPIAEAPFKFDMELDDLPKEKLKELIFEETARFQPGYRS

Structure (SMILES) | IC50 [1] | Vd/F [2] | AUC [2] | CL/F [2] | half-life [2] | Cmax [2] | MRT [2] | IC50 [3] | IC50 [4]
COc1cc(F)cc([C@@H](CO)NC(=O)[C@@H](C)N2CCc3sc(-c4nc(NC5CCOCC5)ncc4Cl)cc3C2=O)c1 [Example 9-P2, (R)-2-(2-(5-Chloro-2-((tetrahydro-2H-pyran-4-yl)amino)pyrimidin-4-yl)-4-oxo-6,7-dihydrothieno[3,2-c]pyridin-5(4H)-yl)-N-((S)-1-(3-fluoro-5-methoxyphenyl)-2-hydroxyethyl)prop ionamide] | 3 nM | 7.14 L/kg | 1820 ng·h/mL | 18.4 mL/min/kg | 4.49 h | 1480 ng/mL | 1.85 h | 18 nM | 19 nM
COc1cc(F)cc([C@@H](CO)NC(=O)[C@@H](C)N2CCc3sc(-c4nc(Nc5ccnn5C)ncc4C)cc3C2=O)c1 [Example 10-P2, (R)-N-((S)-1-(3-Fluoro-5-methoxyphenyl)-2-hydroxyethyl)-2-(2-(5-methyl-2-((1-methyl-1 H-pyrazol-5-yl)amino)pyrimidin-4-yl)-4-oxo-6,7-dihydrothieno[3,2-c]pyridin-5(4H)-yl)pro pionamide] | 5 nM | 1.99 L/kg | 1830 ng·h/mL | 18.2 mL/min/kg | 1.26 h | 1000 ng/mL | 1.64 h | 50 nM | 32 nM
COc1cc(F)cc([C@@H](CO)NC(=O)[C@@H](C)N2CCc3sc(-c4ccnc(NC5CCOCC5)n4)cc3C2=O)c1 [Example 11, (R)-N-((S)-1-(3-Fluoro-5-methoxyphenyl)-2-hydroxyethyl)-2-(4-oxo-2-(2-((tetrahydro-2H-pyran-4-yl)amino)pyrimidin-4-yl)-6,7-dihydrothieno[3,2-c]pyridin-5(4H)-yl)-propionamide] | 2 nM |  |  |  |  |  |  | 16 nM | 5 nM
COc1cc(F)cc([C@@H](CO)NC(=O)[C@@H](C)N2CCc3sc(-c4nc(N[C@@H](C)CO)ncc4Cl)cc3C2=O)c1 [Example 12, (R)-2-(2-(5-Chloro-2-(((S)-1-hydroxypropan-2-yl)amino)pyrimidin-4-yl)-4-oxo-6,7-dihydrothieno[3,2-c]pyridin-5(4H)-yl)-N-((S)-1-(3-fluoro-5-methoxyphenyl)-2-hydroxyethyl)prop ionamide] | 2 nM | 4.77 L/kg | 1600 ng·h/mL | 20.8 mL/min/kg | 2.65 h | 1480 ng/mL | 1.05 h | 5 nM | 24 nM
COc1cc(F)cc([C@@H](CO)NC(=O)[C@@H](C)N2CCc3sc(-c4nc(Nc5ccnn5C)ncc4Cl)cc3C2=O)c1 [Example 14, (R)-2-(2-(5-Chloro-2-((1-methyl-1H-pyrazol-5-yl)amino)pyrimidin-4-yl)-4-oxo-6,7-dihydrothieno[3,2-c]pyridin-5(4H)-yl)-N-((S)-1-(3-fluoro-5-methoxyphenyl)-2-hydroxyethyl)prop ionamide] | 6 nM |  |  |  |  |  |  | 14 nM | 27 nM
COc1cc(F)cc([C@@H](CO)NC(=O)[C@@H](C)N2CCc3sc(-c4nc(NC5CCOCC5)ncc4C)cc3C2=O)c1 [Example 16, (R)-N-((S)-1-(3-Fluoro-5-methoxyphenyl)-2-hydroxyethyl)-2-(2-(5-methyl-2-((tetrahydro-2 H-pyran-4-yl)amino)pyrimidin-4-yl)-4-oxo-6,7-dihydrothieno[3,2-c]pyridin-5-(4H)-yl)prop ionamide] | 1 nM |  |  |  |  |  |  |  | 3 nM
COc1cc(F)cc([C@@H](CO)NC(=O)[C@@H](C)N2CCc3sc(-c4nc(N[C@@H](C)CO)ncc4C)cc3C2=O)c1 [Example 17, (R)-N-((S)-1-(3-Fluoro-5-methoxyphenyl)-2-hydroxyethyl)-2-(2-(2-(((S)-1-hydroxypropan-2-yl)amino)-5-methylpyrimidin-4-yl)-4-oxo-6,7-dihydrothieno[3,2-c]pyridin-5(4H)-yl)prop ionamide] | 2 nM |  |  |  |  |  |  | 17 nM | 12 nM

Source: patent US20220213119A1, “THIENOHETEROCYCLIC DERIVATIVE, PREPARATION METHOD THEREFOR AND MEDICAL USE THEREOF” (Jiangsu Hengrui Medicine Ca, Lid., priority 2019, published 2022)
